Assay results taken from patent US10759813B2, “Neprilysin inhibitors” (THERAVANCE BIOPHARMA R&D IP, LLC, priority 2010, dated 2020).

Biological target: human neprilysin (EC 3.4.24.11; NEP) (Homo sapiens (Human), UniProt P08473)
Experiment: In vitro enzyme inhibition assay at human NEP (fluorogenic peptide substrate)
Format: biochemical
Conditions: pKi values at human NEP, recombinant human NEP
Method in brief: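 Recombinant human NEP preincubated 30 min at 37 °C with compound (10 μM down to pM), then 10 μM Mca-D-Arg-Arg-Leu-Dap-(Dnp)-OH in 50 mM HEPES pH 7.5, 100 mM NaCl, 0.01% Tween-20, 10 μM ZnSO4. Stopped after 20 min with acetic acid; fluorescence Ex320/Em405; Ki by nonlinear fit, reported as pKi.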

Chain of human neprilysin (EC 3.4.24.11; NEP) (P08473 52-750): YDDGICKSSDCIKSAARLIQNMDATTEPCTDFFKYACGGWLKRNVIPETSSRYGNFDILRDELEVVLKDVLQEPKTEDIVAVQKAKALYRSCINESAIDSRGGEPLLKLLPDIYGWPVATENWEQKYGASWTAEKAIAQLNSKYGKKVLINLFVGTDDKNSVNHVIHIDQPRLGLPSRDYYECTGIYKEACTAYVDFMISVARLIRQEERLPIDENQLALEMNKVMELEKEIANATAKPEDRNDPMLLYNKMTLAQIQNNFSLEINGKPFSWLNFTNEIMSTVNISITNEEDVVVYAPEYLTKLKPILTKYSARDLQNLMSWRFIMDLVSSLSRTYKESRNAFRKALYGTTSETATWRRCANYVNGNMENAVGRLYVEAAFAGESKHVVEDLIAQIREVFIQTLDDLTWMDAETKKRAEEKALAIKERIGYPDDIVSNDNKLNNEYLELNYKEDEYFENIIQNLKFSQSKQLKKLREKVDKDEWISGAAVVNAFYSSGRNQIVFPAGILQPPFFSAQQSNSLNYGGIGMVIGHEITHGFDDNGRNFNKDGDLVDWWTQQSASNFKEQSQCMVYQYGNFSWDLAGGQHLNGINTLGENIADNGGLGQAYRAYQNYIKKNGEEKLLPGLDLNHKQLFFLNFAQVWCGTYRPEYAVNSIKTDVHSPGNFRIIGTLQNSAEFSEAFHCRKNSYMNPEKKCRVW

pKi, ≥9.0:
CC(=O)c1cc(C(=O)N[C@H](Cc2ccc(-c3cccc(Cl)c3)cc2)C[C@@H](O)C(=O)O)on1 [Example 18-7, (2R,4R)-4-[(3-Acetyl-isoxazole-5-carbonyl)-amino]-5-(3′-chlorobiphenyl-4-yl)-2-hydroxy-pentanoic acid]
COc1cc(C(=O)N[C@H](Cc2ccc(-c3cccc(Cl)c3)cc2)C[C@@H](O)C(=O)O)on1 [Example 18-8, (2R,4R)-5-(3′-Chlorobiphenyl-4-yl)-2-hydroxy-4-[(3-methoxy-isoxazole-5-carbonyl)-amino]-pentanoic acid]
O=C(N[C@H](Cc1ccc(-c2cccc(Cl)c2)cc1)C[C@@H](O)C(=O)O)c1cc(Cl)no1 [Example 18-9, (2R,4R)-5-(3′-Chloro-biphenyl-4-yl)-4-[(3-chloro-isoxazole-5-carbonyl)-amino]-2-hydroxy-pentanoic acid]
CC(C)c1cc(C(=O)N[C@H](Cc2ccc(-c3cccc(Cl)c3)cc2)C[C@@H](O)C(=O)O)on1 [Example 18-10, (2R,4R)-5-(3′-Chloro-biphenyl-4-yl)-2-hydroxy-4-[(3-isopropyl-isoxazole-5-carbonyl)-amino]-pentanoic acid]
CCCc1cc(C(=O)N[C@H](Cc2ccc(-c3cccc(Cl)c3)cc2)C[C@@H](O)C(=O)O)on1 [Example 18-11, (2R,4R)-5-(3′-Chloro-biphenyl-4-yl)-2-hydroxy-4-[(3-propyl-isoxazole-5-carbonyl)-amino]-pentanoic acid]
CC(C)Cc1cc(C(=O)N[C@H](Cc2ccc(-c3cccc(Cl)c3)cc2)C[C@@H](O)C(=O)O)on1 [Example 18-12, (2R,4R)-5-(3′-Chloro-biphenyl-4-yl)-2-hydroxy-4-[(3-isobutyl-isoxazole-5-carbonyl)-amino]-pentanoic acid]
CC(C)(O)c1cc(C(=O)N[C@H](Cc2ccc(-c3cccc(Cl)c3)cc2)C[C@@H](O)C(=O)O)on1 [Example 18-13, (2R,4R)-5-(3′-Chloro-biphenyl-4-yl)-2-hydroxy-4-{[3-(1-hydroxy-1-methyl-ethyl)-isoxazole-5-carbonyl]-amino}-pentanoic acid]
CC(C)(C)c1cc(C(=O)N[C@H](Cc2ccc(-c3cccc(Cl)c3)cc2)C[C@@H](O)C(=O)O)on1 [Example 18-14, (2R,4R)-4-[(3-tert-Butyl-isoxazole-5-carbonyl)-amino]-5-(3′-chloro-biphenyl-4-yl)-2-hydroxy-pentanoic acid]
O=C(N[C@H](Cc1ccc(-c2cccc(Cl)c2)cc1)C[C@@H](O)C(=O)O)c1cc(-c2ccccc2Cl)on1 [Example 18-15, (2R,4R)-5-(3′-Chlorobiphenyl-4-yl)-4-{[5-(2-chlorophenyl)-isoxazole-3-carbonyl]-amino}-2-hydroxy-pentanoic acid]
O=C(N[C@H](Cc1ccc(-c2cccc(Cl)c2)cc1)C[C@@H](O)C(=O)O)c1cc(-c2ccccc2O)on1 [Example 18-16, (2R,4R)-5-(3′-Chlorobiphenyl-4-yl)-2-hydroxy-4-{[5-(2-hydroxyphenyl)-isoxazole-3-carbonyl]-amino}-pentanoic acid]
O=C(N[C@H](Cc1ccc(-c2cccc(Cl)c2)cc1)C[C@@H](O)C(=O)O)c1cc(-c2ccccc2O)n[nH]1 [Example 18-17, (2R,4R)-5-(3′-Chlorobiphenyl-4-yl)-2-hydroxy-4-{[5-(2-hydroxy-phenyl)-2H-pyrazole-3-carbonyl]-amino}-pentanoic acid]
O=C(N[C@H](Cc1ccc(-c2cccc(Cl)c2)cc1)C[C@@H](O)C(=O)O)c1cc(-c2cnccn2)n[nH]1 [Example 18-19, (2R,4R)-5-(3′-Chlorobiphenyl-4-yl)-2-hydroxy-4-[(5-pyrazin-2-yl-2H-pyrazole-3-carbonyl)-amino]-pentanoic acid]
O=C(N[C@H](Cc1ccc(-c2cccc(Cl)c2)cc1)C[C@@H](O)C(=O)O)c1cc(-c2ccccn2)n[nH]1 [Example 18-23, (2R,4R)-5-(3′-Chlorobiphenyl-4-yl)-2-hydroxy-4-[(5-pyridin-2-yl-2H-pyrazole-3-carbonyl)-amino]-pentanoic acid]
O=C(N[C@H](Cc1ccc(-c2cccc(Cl)c2)cc1)C[C@@H](O)C(=O)O)c1cc(NC(=O)c2ccccc2Cl)n[nH]1 [Example 18-27, (2R,4R)-4-{[5-(2-Chlorobenzoylamino)-2H-pyrazole-3-carbonyl]-amino}-5-(3′-chlorobiphenyl-4-yl)-2-hydroxy-pentanoic acid]
COc1ccccc1C(=O)Nc1cc(C(=O)N[C@H](Cc2ccc(-c3cccc(Cl)c3)cc2)C[C@@H](O)C(=O)O)[nH]n1 [Example 18-31, (2R,4R)-5-(3′-Chloro-biphenyl-4-yl)-2-hydroxy-4-{[5-(2-methoxy-benzoylamino)-2H-pyrazole-3-carbonyl]-amino}-pentanoic acid]
CC(O)c1cc(C(=O)N[C@H](Cc2ccc(-c3cccc(Cl)c3)cc2)C[C@@H](O)C(=O)O)[nH]n1 (stereo partly drawn) [Example 18-32, (2R,4R)-5-(3′-Chloro-biphenyl-4-yl)-2-hydroxy-4-{[5-(1-hydroxy-ethyl)-2H-pyrazole-3-carbonyl]-amino}-pentanoic acid]
O=C(N[C@H](Cc1ccc(-c2cccc(Cl)c2)cc1)C[C@@H](O)C(=O)O)c1cc(-c2cccnc2)[nH]n1 [Example 18-34, (2R,4R)-5-(3′-Chlorobiphenyl-4-yl)-2-hydroxy-4-[(5-pyridin-3-yl-1H-pyrazole-3-carbonyl)-amino]-pentanoic acid]
Cn1nc(C(=O)N[C@H](Cc2ccc(-c3cccc(Cl)c3)cc2)C[C@@H](O)C(=O)O)cc1O [Example 18-35, (2R,4R)-5-(3′-Chloro-biphenyl-4-yl)-2-hydroxy-4-[(5-hydroxy-1-methyl-1H-pyrazole-3-carbonyl)-amino]-pentanoic acid]
O=C(N[C@H](Cc1ccc(-c2cccc(Cl)c2)cc1)C[C@@H](O)C(=O)O)c1cc(O)n(-c2ccccn2)n1 [Example 18-37, (2R,4R)-5-(3′-Chloro-biphenyl-4-yl)-2-hydroxy-4-[(5-hydroxy-1-pyridin-2-yl-1H-pyrazole-3-carbonyl)-amino]-pentanoic acid]
O=C(N[C@H](Cc1ccc(-c2cccc(Cl)c2)cc1)C[C@@H](O)C(=O)O)c1cc(O)n(-c2ccccc2F)n1 [Example 18-38, (2R,4R)-5-(3′-Chloro-biphenyl-4-yl)-4-{[1-(2-fluoro-phenyl)-5-hydroxy-1H-pyrazole-3-carbonyl]-amino}-2-hydroxy-pentanoic acid]
O=C(N[C@@H](Cc1ccc(-c2cccc(Cl)c2)cc1)C[C@@H](O)C(=O)O)c1cc(O)n(-c2cccc(Cl)c2)n1 [Example 18-39, (2R,4S)-5-(3′-Chloro-biphenyl-4-yl)-4-{[1-(3-chloro-phenyl)-5-hydroxy-1H-pyrazole-3-carbonyl]-amino}-2-hydroxy-pentanoic acid]
CCOc1cc(C(=O)N[C@H](Cc2ccc(-c3cccc(Cl)c3)cc2)C[C@@H](O)C(=O)O)n[nH]1 [Example 18-40, (2R,4R)-5-(3′-Chloro-biphenyl-4-yl)-4-[(5-ethoxy-1H-pyrazole-3-carbonyl)-amino]-2-hydroxy-pentanoic acid]
O=C(N[C@H](Cc1ccc(-c2cccc(Cl)c2)cc1)C[C@@H](O)C(=O)O)c1cc(=O)n(-c2ccccc2)[nH]1 [Example 18-41, (2R,4R)-5-(3′-Chlorobiphenyl-4-yl)-2-hydroxy-4-[(5-oxo-1-phenyl-2,5-dihydro-1H-pyrazole-3-carbonyl)-amino]-pentanoic acid]
O=C(N[C@H](Cc1ccc(-c2cccc(Cl)c2)cc1)C[C@@H](O)C(=O)O)c1nn(-c2cccc(Cl)c2)c(=O)[nH]1 [Example 18-42, (2R,4R)-5-(3′-Chloro-biphenyl-4-yl)-4-{[1-(3-chloro-phenyl)-5-oxo-4,5-dihydro-1H-[1,2,4]triazole-3-carbonyl]-amino}-2-hydroxy-pentanoic acid]
O=C(N[C@H](Cc1ccc(-c2cccc(Cl)c2)cc1)C[C@@H](O)C(=O)O)c1nn(-c2ccccc2Cl)c(=O)[nH]1 [Example 18-43, (2R,4R)-5-(3′-Chloro-biphenyl-4-yl)-4-{[1-(2-chloro-phenyl)-5-oxo-4,5-dihydro-1H-[1,2,4]triazole-3-carbonyl]-amino}-2-hydroxy-pentanoic acid]
O=C(N[C@H](Cc1ccc(-c2cccc(Cl)c2)cc1)C[C@@H](O)C(=O)O)c1nn(-c2ccc(F)cc2)c(=O)[nH]1 [Example 18-44, (2R,4R)-5-(3′-Chloro-biphenyl-4-yl)-4-{[1-(4-fluoro-phenyl)-5-oxo-4,5-dihydro-1H-[1,2,4]triazole-3-carbonyl]-amino}-2-hydroxy-pentanoic acid]
O=C(N[C@H](Cc1ccc(-c2cccc(Cl)c2)cc1)C[C@@H](O)C(=O)O)c1nnc(C(F)(F)F)[nH]1 [Example 18-45, (2R,4R)-5-(3′-Chlorobiphenyl-4-yl)-2-hydroxy-4-[(5-trifluoromethyl-4H-[1,2,4]triazole-3-carbonyl)-amino]-pentanoic acid]
O=C(N[C@H](Cc1ccc(-c2cccc(Cl)c2)cc1)C[C@@H](O)C(=O)O)c1n[nH]c(Cl)n1 [Example 18-46, (2R,4R)-5-(3′-Chlorobiphenyl-4-yl)-4-[(5-chloro-1H-[1,2,4]triazole-3-carbonyl)-amino]-2-hydroxy-pentanoic acid]
